In US10011571B2, “Preparation method for aromatic heterocyclic compound used as selective JAK3 and/or JAK1 kinase inhibitor and application of aromatic heterocyclic compound” (SHENZHEN CHIPSCREEN BIOSCIENCES, LTD., priority 2014, dated 2018):

Key:
JAK3 = JAK3 (Homo sapiens (Human), UniProt P52333); assay: Z'-LYTE enzymatic activity detection, JAK3; assay type: biochemical; settings: test compound 30 nM; for inhibition at 0.03 µM: read-out: JAK3 % inhibitory rate @30 nM
Description: (§1) The basic principle of in vitro enzymatic activity assay is based on the difference between the intensities of fluorescence signals generated at different wavelengths (445 nm and 520 nm) from the phosphorylated substrate and non-phosphorylated substrate, in which the specific fluorescence-labeled substrate is phosphorylated by the kinase. When different test compounds are added, the inhibition of kinase activity is represented as the different degrees of substrate phosphorylation, and thus as the different intensities of fluorescence signal, based on which the inhibitory activity of the compound on the kinase can be calculated. Basic detection principle is illustrated in FIG. 1.
(§2) In an enzymatic inhibitory activity detection, GST-labeled human recombinant JAK kinases, including JAK1/PV4774, JAK2/PV4210, JAK3/PV3855, TYK2/PV4790 and their corresponding specific substrates, including Tyr6 (Z′-LYTE® Kinase Assay Kit-Tyrosine 6 Peptide, JAK1/PV4122), Tyr4 (Z′-LYTE® Kinase Assay Kit-Tyrosine 4 Peptide, JAK2/PV3193), Tyr4 (Z′-LYTE® Kinase Assay Kit-Tyrosine 4 Peptide, JAK3/PV3193), Tyr3 (Z′-LYTE® Kinase Assay Kit-[…], TYK2/PV3192) are used. In all tests, development reagent A (PV3297) was used as the test agent. All materials mentioned above were purchased from Invitrogen.
(§3) (1) Preparation: kinase reaction buffer (working solution) is prepared according to the instruction; a concentration gradient of the test compound is prepared by dilution using the kinase reaction buffer (the highest compound concentration is 10 μM for JAK1, JAK2, and TYK2 detection, and 1 μM for JAK3 detection, respectively).
(§4) (2) 10 μl of reaction system, comprising 2.5 μL test compound, 5 μL kinase reaction buffer and 2.5 μL ATP solution (provided by the kit), is mixed and reaction is performed at room temperature for 1 h.
(§5) (3) Controls, including a solvent control without the test compound, a negative control without ATP and a positive control with the phosphorylated substrate, are tested together with the detection. All tests are carried out in triplicate.
(§6) (4) After the enzymatic reaction, 5 μL pre-formulated development buffer is added, and reaction is performed at room temperature for 1 h. Subsequently, the reaction is terminated by adding 5 μL stop buffer.
(§7) (5) The fluorescence signal in each well is detected by an Ascent Fluoroskan FL reader (Thermo Labsystems) at an excitation wavelength of 400 nm, and emission wavelengths of 445 nm and 520 nm. The proportion of substrate phosphorylation is obtained by reference to the fluorescence signal intensity C445/F520.
(§8) (6) The enzymatic inhibitory rate of the test compound can be calculated based on the following equation: Inhibitory rate (%)=1−the proportion of substrate phosphorylation in the detection well/the proportion of substrate phosphorylation in the solvent control well. The half-inhibitory concentration (IC50) can be calculated using an IC50 calculator based on the inhibitory rates of phosphorylation for the test compounds at different concentration gradients.
(§9) Based on the above method, the compounds described herein are enzymatically evaluated in vitro for JAKs (the concentration of the test compound is 30 nM for JAK3 and JAK2 test, and 300 nM for JAK1 test) using Xeljanz (tofacitinib citrate) as the positive control.

JAK1 = JAK1 (Homo sapiens (Human), UniProt P23458); assay: Z'-LYTE enzymatic activity detection, JAK1; assay type: biochemical; settings: test compound 300 nM; for inhibition at 0.3 µM: read-out: JAK1 % inhibitory rate @300 nM
Chain of JAK1 (P23458 whole entry): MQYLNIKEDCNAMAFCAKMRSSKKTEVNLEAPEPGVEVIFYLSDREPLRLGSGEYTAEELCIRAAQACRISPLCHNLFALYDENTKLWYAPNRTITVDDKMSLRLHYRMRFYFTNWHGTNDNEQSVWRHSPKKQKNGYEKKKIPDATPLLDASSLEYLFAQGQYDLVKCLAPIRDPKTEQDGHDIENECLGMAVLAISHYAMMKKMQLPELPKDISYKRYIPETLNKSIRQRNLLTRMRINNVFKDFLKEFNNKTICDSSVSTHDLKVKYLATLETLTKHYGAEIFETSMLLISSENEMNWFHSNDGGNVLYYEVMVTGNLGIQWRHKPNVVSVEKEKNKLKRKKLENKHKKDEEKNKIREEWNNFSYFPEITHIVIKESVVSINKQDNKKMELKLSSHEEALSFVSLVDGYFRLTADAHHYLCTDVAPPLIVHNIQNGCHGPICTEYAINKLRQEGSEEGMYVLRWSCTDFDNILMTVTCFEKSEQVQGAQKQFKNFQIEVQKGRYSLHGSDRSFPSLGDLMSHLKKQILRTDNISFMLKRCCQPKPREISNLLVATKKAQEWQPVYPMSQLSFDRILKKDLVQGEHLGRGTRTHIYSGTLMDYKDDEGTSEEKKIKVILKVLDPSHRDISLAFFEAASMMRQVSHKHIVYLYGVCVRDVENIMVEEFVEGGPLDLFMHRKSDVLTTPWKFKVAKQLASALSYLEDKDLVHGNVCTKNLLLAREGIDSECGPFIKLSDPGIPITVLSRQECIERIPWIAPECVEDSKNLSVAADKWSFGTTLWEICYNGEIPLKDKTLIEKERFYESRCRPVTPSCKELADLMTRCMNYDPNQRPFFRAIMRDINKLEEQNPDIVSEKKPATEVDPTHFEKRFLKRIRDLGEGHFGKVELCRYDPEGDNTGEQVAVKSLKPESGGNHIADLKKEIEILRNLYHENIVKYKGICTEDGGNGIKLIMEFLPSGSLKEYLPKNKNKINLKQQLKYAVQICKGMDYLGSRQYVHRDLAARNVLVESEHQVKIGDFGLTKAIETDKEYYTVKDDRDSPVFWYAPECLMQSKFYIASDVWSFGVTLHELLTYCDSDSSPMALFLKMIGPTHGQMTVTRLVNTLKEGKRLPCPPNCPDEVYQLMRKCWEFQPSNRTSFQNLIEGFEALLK
Description: as §1, §2, §3, §4, §5, §6, §7, §8, §9

JAK2 = JAK2 (Homo sapiens (Human), UniProt O60674); assay: Z'-LYTE enzymatic activity detection, JAK2; assay type: biochemical; settings: test compound 30 nM; for inhibition at 0.03 µM: read-out: JAK2 % inhibitory rate @30 nM
Chain of JAK2 (O60674 whole entry): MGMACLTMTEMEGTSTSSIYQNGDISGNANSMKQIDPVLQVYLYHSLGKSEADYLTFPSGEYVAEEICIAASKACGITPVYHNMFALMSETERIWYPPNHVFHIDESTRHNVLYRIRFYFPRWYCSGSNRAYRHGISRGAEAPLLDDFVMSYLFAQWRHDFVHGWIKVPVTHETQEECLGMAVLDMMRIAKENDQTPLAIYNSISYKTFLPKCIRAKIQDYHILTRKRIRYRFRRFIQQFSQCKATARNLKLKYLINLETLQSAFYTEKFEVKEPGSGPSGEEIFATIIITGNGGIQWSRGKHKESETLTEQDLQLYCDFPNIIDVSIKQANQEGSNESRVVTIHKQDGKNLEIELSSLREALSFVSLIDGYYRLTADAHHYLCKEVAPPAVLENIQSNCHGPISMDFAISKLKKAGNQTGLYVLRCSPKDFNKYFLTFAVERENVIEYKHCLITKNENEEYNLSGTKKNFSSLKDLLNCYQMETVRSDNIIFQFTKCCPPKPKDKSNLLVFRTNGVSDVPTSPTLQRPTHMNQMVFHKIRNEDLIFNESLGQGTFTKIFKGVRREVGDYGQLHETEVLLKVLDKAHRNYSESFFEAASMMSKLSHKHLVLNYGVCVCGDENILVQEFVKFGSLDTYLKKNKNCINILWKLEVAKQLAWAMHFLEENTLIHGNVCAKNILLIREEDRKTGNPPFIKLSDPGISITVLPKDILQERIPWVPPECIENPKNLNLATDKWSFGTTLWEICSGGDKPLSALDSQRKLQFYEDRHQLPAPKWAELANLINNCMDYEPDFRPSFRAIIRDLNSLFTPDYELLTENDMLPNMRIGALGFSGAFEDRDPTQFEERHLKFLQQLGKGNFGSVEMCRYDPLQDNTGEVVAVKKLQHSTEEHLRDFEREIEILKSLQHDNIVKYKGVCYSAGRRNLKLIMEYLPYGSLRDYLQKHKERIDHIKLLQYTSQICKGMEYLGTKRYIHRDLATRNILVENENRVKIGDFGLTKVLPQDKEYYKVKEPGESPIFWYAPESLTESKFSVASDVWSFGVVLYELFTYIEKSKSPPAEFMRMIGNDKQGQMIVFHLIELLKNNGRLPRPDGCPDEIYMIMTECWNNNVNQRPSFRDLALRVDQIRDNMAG
Description: as §1, §2, §3, §4, §5, §6, §7, §8, §9

CTLL-2 cells = assay: Cell growth activity assay (MTS), CTLL-2 cell model; assay type: cell-based, mouse; settings: Mus musculus, CTLL-2, 300 nM, 24 h, read-out: CTLL-2 % growth rate @300 nM
Source text: (§10) MTS assay is a routine method for cell toxicity detection. The basic principle is based on the capacity of dehydrogenase in the mitochondria of living cells to reduce a novel yellow […] MTS to formazan, so that the amount of living cells is proportional to the amount of formazan product by detecting the absorbance at 490 nm (OD), thereby speculating the amount of living cells according to the OD value, and understanding the capacity of the test compound to inhibit the growth of cells or to kill the cells.
In this experiment, mouse T-cell line CTLL-2 was used. The proliferation and growth of this cell line strongly depend on IL-2, and it is commonly used to evaluate the active titer of exogenous IL-2. By inhibiting the activity of kinase JAK1/3, the proliferation of CTLL-2 can be inhibited under in vitro culture. The activation and proliferation of T-cell is also important pathological characteristics for various immunological diseases. Thus, this model is also pathologically related.
By comparing the change of absorbance generated by the cells treated by the test compounds using MTS assay, the growth inhibitory activity of the test compounds on the model cells can be realized, and thereby potential inhibitory activity of the compounds on JAK1/3 pathway can be evaluated.
(§11) MTS is performed according to routine procedure in a 96-well plate.
(§12) The model cells are inoculated into each well of the 96-well plate at an appropriate concentration (about 20,000 cells/well). After 24 h, the test compounds are added at different concentration gradients (the highest concentration of 10 μM). A solvent control (DMSO) and a negative control are also performed at the same time. Each experiment is repeated for 3 times. The cells are detected after cultured for another 24 h.
CTLL-2 is a suspended cell. After incubation, 20 μL pre-formulated mixture of MTS and PMS (in a ratio of 20:1) is directly added to each well. After incubation at 37° C. for 2 h, it is then detected by a microplate reader (490 nm).
The effect of the test compound on cell growth is calculated by comparing the change of OD values between the test well and the solvent control well, after subtracting the background of the negative control. For the test compounds at different concentration gradients, the inhibitory rates on the growth of model cells and their half-growth inhibitory concentrations (GI50) are each calculated.
Based on the above method, cytological evaluation is performed to the compounds described herein (for the detection of CTLL-2 cell, the concentration of the test compound is 300 nM; for the detection of HeLa and HUVEC cell, the concentration of the test compound is […]).

HeLa cells = assay: Cell growth activity assay (MTS), HeLa cell model; assay type: cell-based, human; set-up: activity: dose or concentration left out as unconfirmed; settings: Homo sapiens, HeLa, 72 h, read-out: HeLa % growth rate
Source text: as §10
HeLa cell is a human cervical cancer cell line, and belongs to epithelial tumor cell line; HUVEC is a human umbilical vein endothelial cell, and belongs to primary endothelial cell; both types of cells express all subtypes except for JAK3.
The change of JAK kinase activity has no significant influence on other cell types except for the immune cells, and both cell models mentioned above are mainly used to evaluate whether there are any other kinase targets besides JAK kinases or there are nonselective cell toxicities.
In this experiment, a cultured cell model is incubated with the test compounds at different concentrations for a specific duration. The effect of the treatment by the test compound on the growth of cells is detected using MTS assay.
as §11
as §12, with “(about 5000” for “(about 20,000”, “highest final” for “highest”, “concentration is 40” for “concentration of 10”, “another 72” for “another 24”
After all culture medium is aspirated out of the well, 100 μL fresh medium and 20 μL pre-formulated mixture of MTS and PMS (in a ratio of 20:1) are added to each well. After incubation at 37° C. for 2 h, it is then detected by a microplate reader (490 nm).
The cell growth inhibitory rate and GI50 of the test compound are calculated as above.
Based on the above method, cytological evaluation is performed to the compounds described herein (for the detection of CTLL-2 cell, the concentration of the test compound is 300 nM; […]).

Chain of JAK3 (P52333 whole entry): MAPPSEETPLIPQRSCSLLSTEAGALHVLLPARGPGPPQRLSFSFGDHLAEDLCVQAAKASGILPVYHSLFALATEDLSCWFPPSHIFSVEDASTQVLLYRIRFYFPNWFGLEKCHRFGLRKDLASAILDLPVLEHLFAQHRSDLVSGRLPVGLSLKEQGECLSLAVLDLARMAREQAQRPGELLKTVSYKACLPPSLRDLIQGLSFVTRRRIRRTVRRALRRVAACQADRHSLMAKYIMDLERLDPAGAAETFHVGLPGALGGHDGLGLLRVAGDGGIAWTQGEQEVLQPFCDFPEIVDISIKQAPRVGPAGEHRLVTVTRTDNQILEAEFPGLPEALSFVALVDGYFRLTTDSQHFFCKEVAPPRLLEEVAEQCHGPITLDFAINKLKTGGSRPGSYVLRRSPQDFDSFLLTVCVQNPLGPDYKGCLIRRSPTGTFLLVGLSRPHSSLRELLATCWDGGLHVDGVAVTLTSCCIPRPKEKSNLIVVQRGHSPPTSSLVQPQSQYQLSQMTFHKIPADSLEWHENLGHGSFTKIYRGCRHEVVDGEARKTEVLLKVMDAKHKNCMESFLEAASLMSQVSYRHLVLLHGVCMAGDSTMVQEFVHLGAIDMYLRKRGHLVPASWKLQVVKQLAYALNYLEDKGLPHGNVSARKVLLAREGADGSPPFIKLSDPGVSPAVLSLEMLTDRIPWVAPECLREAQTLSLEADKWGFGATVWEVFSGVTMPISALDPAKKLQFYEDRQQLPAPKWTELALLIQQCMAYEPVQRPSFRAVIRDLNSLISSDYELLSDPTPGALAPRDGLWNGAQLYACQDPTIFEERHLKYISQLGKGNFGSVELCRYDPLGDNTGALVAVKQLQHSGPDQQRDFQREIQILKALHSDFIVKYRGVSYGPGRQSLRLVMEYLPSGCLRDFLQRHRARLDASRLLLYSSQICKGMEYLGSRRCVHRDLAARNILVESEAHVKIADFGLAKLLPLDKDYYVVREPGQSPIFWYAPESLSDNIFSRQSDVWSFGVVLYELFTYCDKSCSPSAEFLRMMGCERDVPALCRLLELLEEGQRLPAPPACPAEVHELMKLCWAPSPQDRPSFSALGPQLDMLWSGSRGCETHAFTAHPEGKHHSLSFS

Row | Structure (SMILES) | JAK3 RV (ratio between the inhibitory rate of the test compound and that of Xeljanz) (JAK3) | inhibition at 0.03 µM (JAK3) [%] | JAK1 RV (ratio between the inhibitory rate of the test compound and that of Xeljanz) (JAK1) | inhibition at 0.3 µM (JAK1) [%] | inhibition at 0.03 µM (JAK2) [%] | activity at 0.3 µM (CTLL-2 cells) [%] | activity (HeLa cells) [%] | JAK2 RV (ratio between the inhibitory rate of the test compound and that of Xeljanz) (JAK2)
1 | C=CC(=O)N(C)c1cc(Nc2ncc(Cl)c(NCCCNC(=O)c3ccncc3)n2)ccc1F [Example 75, N-(3-(5-chloro-2-(4-fluoro-3-(N-methylacrylamido)phenylamino)pyrimidinyl-4-amino)propyl)isonicotinamide] | 0.90 | 121 | 0.14 | 14 | 0 | 49 | 102 | 
2 | C=CC(=O)N(C)c1cc(Nc2ncc(Cl)c(NCCCNC(=O)c3ccc(CC)cc3)n2)ccc1F [Example 79, N-(3-(5-chloro-2-(4-fluoro-3-(N-methylacrylamido)phenylamino)pyrimidinyl-4-amino)propyl)-4-ethylbenzamide] | 0.96 | 80 | 0.22 | 19 | 0 | 3 | 78 | 
3 | C=CC(=O)N(C)c1cc(Nc2ncc(Cl)c(OCCCNC(=O)c3ccc(C#N)cc3)n2)ccc1F [Example 71, N-(3-(5-chloro-2-(4-fluoro-3-(N-methylacrylamido)phenylamino)pyrimidinyl-4-oxo)propyl)-4-cyano-benzamide] | 0.70 | 95 | 0.70 | 7 | 1 | 70 | 112 | 0.01
4 | C=CC(=O)N(C)c1cc(Nc2ncc(F)c(NCCCNC(=O)c3ccc(C#N)cc3)n2)ccc1F [Example 60, 4-cyano-N-(3-(5-fluoro-2-(4-fluoro-3-(N-methylacrylamido)phenylamino)pyrimidinyl-4-amino)propyl)benzamide] | 0.79 | 106 |  | 0 | 0 | 79 | 94 | 
5 | C=CC(=O)N(C)c1cc(Nc2ncc(Cl)c(NCCCNC(=O)c3ccc(C(C)=O)cc3)n2)ccc1F [Example 111, 4-acetyl-N-(3-(5-chloro-2-(4-fluoro-3-(N-methylacrylamido)phenylamino)pyrimidinyl-4-amino)propyl)benzamide] | 0.99 | 82 | 0.19 | 16 | 0 | 3 | 67 | 
6 | C=CC(=O)N(C)c1cc(Nc2ncc(Cl)c(NCCCNC(=O)c3ccc(C#N)cc3F)n2)ccc1F [Example 52, N-(3-(5-chloro-2-(4-fluoro-3-(N-methylacrylamido)phenylamino)pyrimidinyl-4-amino)propyl)-4-cyano-2-fluorobenzamide] | 0.54 | 105 | 0.08 | 14 | 0 | 29 | 64 | 
7 | C=CC(=O)N(C)c1cc(Nc2ncc(Cl)c(NCCCNS(=O)(=O)c3ccc(C#N)cc3)n2)ccc1F [Example 68, 4-cyano-N-(3-(5-chloro-2-(4-fluoro-3-(N-methylacrylamido)phenylamino)pyrimidinyl-4-amino)propyl)benzenesulfonamide] | 0.76 | 103 | 0.15 | 15 | 0 | 69 | 110 | 
8 | C=CC(=O)Nc1cc(Nc2ncc(Cl)c(NCCCNC(=O)c3ccc(C(F)(F)F)cc3)n2)ccc1F [Example 13, N-(3-(2-(3-acrylamido-4-fluoro-phenylamino)-5-chloropyrimidinyl-4-amino)propyl)-4-trifluoromethylbenzamide] | 0.96 | 79 | 0.40 | 35 | 0 | 63 | 1 | 
